Patent publication US20020018997A1, “Biomolecular toxicity assay” (priority 2000, published 2002)

Tests used:
Beef Heart Mitochondria = conditions: cited from earlier work
[1] = system: Sub-mitochondrial Particle (SMP); conditions: cited from earlier work
Fish = conditions: at 96 hr; cited from earlier work
actin-cofilin complex = test: Native PAGE gel analysis of actin-cofilin complex; assay type: binding; conditions: for Effective (E50) concentration, disappearance of the actin-cofilin band: native PAGE gels, 25 μM actin-cofilin complex, metal mass without counter ions
Description: Four heavy metal ions (Cd, Cu, Hg and Zn) were examined over the concentration range 1-1000 μg L^−1.
Combinations of actin, cofilin and DNaseI were mixed at equimolar concentrations (˜20-25 μm) in a Eppendorf tube and incubated for 15 min at 22° C. Actin, cofilin, DNaseI and their complexes were then separated on a 10% w/v native gel. […] Instead, the rate of migration is determined by the ratio of charge to volume. Actin (MT 43 kDa) has a net negative charge.

[2] = system: Photobacterium phosphoreum; conditions: cited from earlier work
DNA/EtBr complex = test: DNA/EtBr fluorescence emission in solution; assay type: binding; conditions: 5 μg/ml DNA, 2 μg/ml EtBr
Description: The fluorescence emission of DNA-dye ligands such as ethidium bromide (EtBr) are examined spectroscopically in solution.
Changes in fluorescence intensity were noticeable at 2 μM.

Compound | Effective (E50) concentration, BHM (Beef Heart Mitochondria) | Effective (E50) concentration, SMP [1] | Effective (E50) concentration, Fish (Fish) | Effective (E50) concentration, disappearance of the actin-cofilin band (actin-cofilin complex) | Microtox mean lethal concentration [2] | Concentration at which changes in fluorescence intensity were noticeable (DNA/EtBr complex) | Concentration range of concentration-dependent quenching of fluorescent signal (DNA/EtBr complex; excitation 520 nm) | Concentration at which the actin-cofilin complex is first noticeably affected (actin-cofilin complex; native gel) | Density of the actin-cofilin complex (actin-cofilin complex; 250-2500 μg L^−1)
[Cd+2] [Cd^2+] | 158 µg/L | 520 µg/L | 630 µg/L | 800 to 1200 µg/L | 41400 µg/L | – | – | – | –
[Cl][Hg][Cl] [HgCl2] | – | – | – | – | – | 2 µM | 1 to 100 µM | – | –
[Cu+2] [Cu^2+] | 93 µg/L | 300 µg/L | 530 µg/L | 400 to 600 µg/L | 9300 µg/L | – | – | approximately 200 μg L^−1 | –
[Cl-].[Cl-].[Zn+2] [Zn^2+, ZnCl2] | 80 µg/L | 1700 µg/L | 2990 µg/L | 900 to 1000 µg/L | 33000 µg/L | – | – | – | decreased the density of the actin-cofilin complex
